In patent US8927507B2, “Selective glycosidase inhibitors and uses thereof” (priority 2011, dated 2015):

Columns and labels:
[1] = target: human O-GlcNAcase (Homo sapiens (Human), UniProt O60502); test: Assay for determination of Ki values for inhibition of O-GlcNAcase activity (fluorescence-based hOGA); format: biochemical; conditions: purified human O-GlcNAcase 0.7 nM, 4-Methylumbelliferyl N-acetyl-β-D-glucosaminide substrate, pH 7.0, Cheng-Prusoff
Procedure: Experimental Procedure for Kinetic Analyses: Enzymatic reactions were carried out in a reaction containing 50 mM NaH2PO4, 100 mM NaCl and 0.1% BSA (pH 7.0) using 2 mM 4-Methylumbelliferyl N-acetyl-β-D-glucosaminide dihydrate (Sigma M2133) dissolved in ddH2O, as a substrate. The amount of purified human O-GlcNAcase enzyme used in the reaction was 0.7 nM. Test compound of varying concentrations was added to the enzyme prior to initiation of the reaction. The reaction was performed at room temperature in a 96-well plate and was initiated with the addition of substrate. The production of fluorescent product was measured every 60 sec for 45 min with a Tecan Infinite M200 plate-reader with excitation at 355 nm and emission detected at […], with 4-Methylumbelliferone (Sigma M1381) used to produce a standard curve. The slope of product production was determined for each concentration of compound tested and plotted, using standard curve fitting algorithms for sigmoidal dose response curves. The values for a four parameter logistic curve fit of the data were determined.
K1 values were determined using the Cheng-Prusoff equation; the Km of O-GlcNAcase for substrate was 0.2 mM.

[2] = target: O-GlcNAcase (Rattus norvegicus (Rat), UniProt Q8VIJ5); test: Cell-based ELISA of O-GlcNAcylated protein (RL-2 antibody) in PC-12 cells; conditions: rat PC-12 cells, 24 h treatment, O-GlcNAcylated protein detected with RL-2 antibody
Description: Inhibition of O-GlcNAcase, which removes O-GlcNAc from cellular proteins, results in an increase in the level of O-GlcNAcylated protein in cells. An increase in O-GlcNAcylated protein can be measured by an antibody, such as RL-2, that binds to O-GlcNAcylated protein. The amount of O-GlcNAcylated protein:RL2 antibody interaction can be measured by enzyme linked immunosorbant assay (ELISA) procedures.
A variety of tissue culture cell lines, expressing endogenous levels of O-GlcNAcase, can be utilized; examples include rat PC-12, and human U-87, or SK-N-SH cells. In this assay, rat PC-12 cells were plated in 96-well plates with approximately 10,000 cells/well. […] If desired, the total protein concentration of samples was determined using 20 μl of the sample using the BCA method.
The ELISA portion of the assay was performed in a black Maxisorp 96-well plate that was coated overnight at 4° C. with 100 μL/well of the cell lysate (1:10 dilution of the lysate with PBS containing protease inhibitors, phosphatase inhibitors, and PMSF). […] The detection reaction was incubated for 15 minutes at room temperature and then read with excitation at 530 nm and emission at 590 nm.
The amount of O-GlcNAcylated protein, as detected by the ELISA assay, was plotted for each concentration of test compound using standard curve fitting algorithms for sigmoidal dose response curves. […]

human O-GlcNAcase, sequence (O60502 whole entry): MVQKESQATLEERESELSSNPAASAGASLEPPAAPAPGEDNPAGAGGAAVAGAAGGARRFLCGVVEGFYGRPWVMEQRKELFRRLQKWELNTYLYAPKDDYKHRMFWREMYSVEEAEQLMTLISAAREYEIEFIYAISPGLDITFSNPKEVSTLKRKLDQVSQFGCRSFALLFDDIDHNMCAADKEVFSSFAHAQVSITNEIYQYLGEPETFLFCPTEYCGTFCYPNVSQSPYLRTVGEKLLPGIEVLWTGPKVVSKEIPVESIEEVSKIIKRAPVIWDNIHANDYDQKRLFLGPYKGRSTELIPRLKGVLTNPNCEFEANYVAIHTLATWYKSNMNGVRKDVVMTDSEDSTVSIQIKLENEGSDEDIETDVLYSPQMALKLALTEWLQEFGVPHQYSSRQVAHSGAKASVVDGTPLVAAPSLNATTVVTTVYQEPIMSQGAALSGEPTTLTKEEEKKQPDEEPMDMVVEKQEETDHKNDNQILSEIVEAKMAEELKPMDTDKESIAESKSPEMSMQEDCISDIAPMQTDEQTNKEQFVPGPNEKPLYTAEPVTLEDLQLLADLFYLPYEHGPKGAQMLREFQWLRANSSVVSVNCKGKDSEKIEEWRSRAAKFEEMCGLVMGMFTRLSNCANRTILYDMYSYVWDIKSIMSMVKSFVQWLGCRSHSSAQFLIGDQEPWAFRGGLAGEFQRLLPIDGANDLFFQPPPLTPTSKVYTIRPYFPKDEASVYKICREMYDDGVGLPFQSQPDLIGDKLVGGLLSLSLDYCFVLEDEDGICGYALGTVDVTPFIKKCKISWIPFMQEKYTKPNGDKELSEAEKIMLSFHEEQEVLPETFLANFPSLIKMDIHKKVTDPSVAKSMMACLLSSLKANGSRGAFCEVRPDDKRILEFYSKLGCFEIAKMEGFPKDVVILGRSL
O-GlcNAcase, sequence (Q8VIJ5 whole entry): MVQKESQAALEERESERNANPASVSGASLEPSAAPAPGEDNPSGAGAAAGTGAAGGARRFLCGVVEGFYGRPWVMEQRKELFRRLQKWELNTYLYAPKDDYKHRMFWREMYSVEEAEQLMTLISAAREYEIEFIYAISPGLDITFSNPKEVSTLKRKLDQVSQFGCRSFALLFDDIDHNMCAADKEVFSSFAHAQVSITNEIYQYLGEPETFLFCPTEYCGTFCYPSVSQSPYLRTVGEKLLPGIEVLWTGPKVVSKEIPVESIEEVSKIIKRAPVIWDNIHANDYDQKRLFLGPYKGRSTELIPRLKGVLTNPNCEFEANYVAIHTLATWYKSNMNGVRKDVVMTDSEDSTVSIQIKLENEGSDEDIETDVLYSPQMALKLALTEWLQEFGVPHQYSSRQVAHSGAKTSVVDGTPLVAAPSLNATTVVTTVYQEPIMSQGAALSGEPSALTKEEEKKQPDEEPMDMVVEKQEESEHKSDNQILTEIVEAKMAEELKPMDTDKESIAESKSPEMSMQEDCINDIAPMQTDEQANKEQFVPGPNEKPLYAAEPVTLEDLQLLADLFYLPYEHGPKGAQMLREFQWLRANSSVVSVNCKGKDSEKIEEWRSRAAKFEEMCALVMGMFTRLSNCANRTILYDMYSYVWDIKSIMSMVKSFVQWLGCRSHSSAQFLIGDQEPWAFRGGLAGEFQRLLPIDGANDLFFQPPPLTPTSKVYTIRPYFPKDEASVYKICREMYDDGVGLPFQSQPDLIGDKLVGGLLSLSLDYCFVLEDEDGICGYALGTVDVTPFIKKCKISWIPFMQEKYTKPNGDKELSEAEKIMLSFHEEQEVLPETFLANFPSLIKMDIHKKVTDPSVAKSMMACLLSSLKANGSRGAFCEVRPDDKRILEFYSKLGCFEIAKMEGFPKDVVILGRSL

Ki [1] [nM]	EC50 [2] [nM]	SMILES
15		OC[C@H]1O[C@@H]2SC(NCCCF)=N[C@@H]2[C@@H](O)[C@@H]1O [Example 2, (3aR,5R,6S,7R,7aR)-2-((3-fluoropropyl)amino)-5-(hydroxymethyl)-5,6,7,7a-tetrahydro-3aH-pyrano[3,2-d]thiazole-6,7-diol]
4.4		OC[C@H]1O[C@@H]2SC(NCCC3CC3)=N[C@@H]2[C@@H](O)[C@@H]1O [Example 3, (3aR,5R,6S,7R,7aR)-2-(2-Cyclopropylethylamino)-5-(hydroxymethyl)-5,6,7,7a-tetrahydro-3aH-pyrano[3,2-d]thiazole-6,7-diol]
15		OC[C@H]1O[C@@H]2SC(NCC3CC3)=N[C@@H]2[C@@H](O)[C@@H]1O [Example 11, (3aR,5R,6S,7R,7aR)-2-((cyclopropylmethyl)amino)-5-(hydroxymethyl)-5,6,7,7a-tetrahydro-3aH-pyrano[3,2-d]thiazole-6,7-diol]
15	196	CCCN(C)C1=N[C@@H]2[C@@H](O)[C@H](O)[C@@H](CO)O[C@@H]2S1 [Example 15, (3aR,5R,6S,7R,7aR)-5-(hydroxymethyl)-2-(methyl(propyl)amino)-5,6,7,7a-tetrahydro-3aH-pyrano[3,2-d]thiazole-6,7-diol]
2.8	152	C=CCN(C)C1=N[C@@H]2[C@@H](O)[C@H](O)[C@@H](CO)O[C@@H]2S1 [Example 16, (3aR,5R,6S,7R,7aR)-2-(allyl(methyl)amino)-5-(hydroxymethyl)-5,6,7,7a-tetrahydro-3aH-pyrano[3,2-d]thiazole-6,7-diol]
11		CON(C)C1=N[C@@H]2[C@@H](O)[C@H](O)[C@@H](CO)O[C@@H]2S1 [Example 18, (3aR,5R,6S,7R,7aR)-5-(hydroxymethyl)-2-(methoxy(methyl)amino)-5,6,7,7a-tetrahydro-3aH-pyrano[3,2-d]thiazole-6,7-diol]
74		CCC(=O)NC1=N[C@@H]2[C@@H](O)[C@H](O)[C@@H](CO)O[C@@H]2S1 [Example 22, N-((3aR,5R,6S,7R,7aR)-6,7-dihydroxy-5-(hydroxymethyl)-5,6,7,7a-tetrahydro-3aH-pyrano[3,2-d]thiazol-2-yl)propionamide]
22		CCNC(=O)NC1=N[C@@H]2[C@@H](O)[C@H](O)[C@@H](CO)O[C@@H]2S1 [Example 29, 1-((3aR,5R,6S,7R,7aR)-6,7-dihydroxy-5-(hydroxymethyl)-5,6,7,7a-tetrahydro-3aH-pyrano[3,2-d]thiazol-2-yl)-3-ethylurea]
